Results published in PubChem BioAssay AID2060912 (Molecular Pharmacology Branch, DTP, NCI, 2025).
Several values for one entry are separate records, joined by “and”; a condition that tells them apart may be missing. Identical values can stand only once.

Tested on: HUVEC/MSC spheroids viability
Experiment: Human HUVEC/MSC cell line growth inhibition [KRAS2];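 for viability, T/C: percent of DMSO vehicle control luminescence so 100% = untreated viability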
Settings: for viability, T/C: stronger effect = lower value
Procedure, shortened: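 The concentration series started at or near clinical Cmax (10 microM if not known) and fell in half-log increments, alone or in combination. Cells were stromal-only spheroids of pooled-donor HUVEC and hMSC (passage </=5), with different drug plates and layout from the tumor spheroid screens.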

[1] = curve of first compound, second compound 0.0316 µM
[2] = curve of first compound, second compound 0.1 µM
[3] = curve of first compound, second compound 0.316 µM
[4] = curve of first compound, second compound 1 µM
[5] = curve of first compound, second compound 3.16 µM
[6] = curve of first compound, second compound 10 µM
[7] = second compound 0.0316 µM, first compound 0.0316 µM
[8] = second compound 0.0316 µM, first compound 0.1 µM
[9] = second compound 0.0316 µM, first compound 0.316 µM
[10] = second compound 0.0316 µM, first compound 1 µM
[11] = second compound 0.0316 µM, first compound 3.16 µM
[12] = second compound 0.0316 µM, first compound 10 µM
[13] = second compound 0.1 µM, first compound 0.0316 µM
[14] = second compound 0.1 µM, first compound 0.1 µM
[15] = second compound 0.1 µM, first compound 0.316 µM
[16] = second compound 0.1 µM, first compound 1 µM
[17] = second compound 0.1 µM, first compound 3.16 µM
[18] = second compound 0.1 µM, first compound 10 µM
[19] = second compound 0.316 µM, first compound 0.0316 µM
[20] = second compound 0.316 µM, first compound 0.1 µM
[21] = second compound 0.316 µM, first compound 0.316 µM
[22] = second compound 0.316 µM, first compound 1 µM
[23] = second compound 0.316 µM, first compound 3.16 µM
[24] = second compound 0.316 µM, first compound 10 µM
[25] = second compound 1 µM, first compound 0.0316 µM
[26] = second compound 1 µM, first compound 0.1 µM
[27] = second compound 1 µM, first compound 0.316 µM
[28] = second compound 1 µM, first compound 1 µM
[29] = second compound 1 µM, first compound 3.16 µM
[30] = second compound 1 µM, first compound 10 µM
[31] = second compound 3.16 µM, first compound 0.0316 µM
[32] = second compound 3.16 µM, first compound 0.1 µM
[33] = second compound 3.16 µM, first compound 0.316 µM
[34] = second compound 3.16 µM, first compound 1 µM
[35] = second compound 3.16 µM, first compound 3.16 µM
[36] = second compound 3.16 µM, first compound 10 µM
[37] = second compound 10 µM, first compound 0.0316 µM
[38] = second compound 10 µM, first compound 0.1 µM
[39] = second compound 10 µM, first compound 0.316 µM
[40] = second compound 10 µM, first compound 1 µM
[41] = second compound 10 µM, first compound 3.16 µM
[42] = second compound 10 µM, first compound 10 µM

## COC(=O)c1ccc2c(C(=Nc3ccc(N(C)C(=O)CN4CCN(C)CC4)cc3)c3ccccc3)c(O)[nH]c2c1 + C=CC(=O)N1CCN(c2nc(=O)n(-c3c(C)ccnc3C(C)C)c3nc(-c4c(O)cccc4F)c(F)cc23)C(C)C1
[1]
  IC50: 2670 nM
[2]
  IC50: 2770 nM
[3]
  IC50: 3640 nM
[4]
  IC50: 3140 nM
[5]
  IC50: 3920 nM
[6]
  IC50: 2420 nM
[7]
  viability, T/C: 92.2%
[8]
  viability, T/C: 85.4%
[9]
  viability, T/C: 85.9%
[10]
  viability, T/C: 61.6%
[11]
  viability, T/C: 51.7%
[12]
  viability, T/C: 3.33%
[13]
  viability, T/C: 86.8%
[14]
  viability, T/C: 101%
[15]
  viability, T/C: 99.8%
[16]
  viability, T/C: 66%
[17]
  viability, T/C: 50.3%
[18]
  viability, T/C: 0.39%
[19]
  viability, T/C: 79.2%
[20]
  viability, T/C: 87.9%
[21]
  viability, T/C: 96.2%
[22]
  viability, T/C: 83.4%
[23]
  viability, T/C: 56.5%
[24]
  viability, T/C: 3.54%
[25]
  viability, T/C: 88.4%
[26]
  viability, T/C: 101%
[27]
  viability, T/C: 115%
[28]
  viability, T/C: 75%
[29]
  viability, T/C: 52.5%
[30]
  viability, T/C: 0.39%
[31]
  viability, T/C: 94.3%
[32]
  viability, T/C: 149%
[33]
  viability, T/C: 126%
[34]
  viability, T/C: 80.5%
[35]
  viability, T/C: 67.8%
[36]
  viability, T/C: 0.46%
[37]
  viability, T/C: 90.2%
[38]
  viability, T/C: 102%
[39]
  viability, T/C: 145%
[40]
  viability, T/C: 85.4%
[41]
  viability, T/C: 39.4%
[42]
  viability, T/C: 1.51%

## CCNC(=O)CC1N=C(c2ccc(Cl)cc2)c2cc(OC)ccc2-n2c(C)nnc21 (stereo not given) + C=CC(=O)N1CCN(c2nc(=O)n(-c3c(C)ccnc3C(C)C)c3nc(-c4c(O)cccc4F)c(F)cc23)C(C)C1
[1]
  IC50: > 10000 nM
[2]
  IC50: > 10000 nM
[3]
  IC50: > 10000 nM
[4]
  IC50: > 10000 nM
[5]
  IC50: > 10000 nM
[6]
  IC50: > 10000 nM
[7]
  viability, T/C: 94.8%
[8]
  viability, T/C: 96.7%
[9]
  viability, T/C: 129%
[10]
  viability, T/C: 140%
[11]
  viability, T/C: 120%
[12]
  viability, T/C: 121%
[13]
  viability, T/C: 104%
[14]
  viability, T/C: 86.3%
[15]
  viability, T/C: 110%
[16]
  viability, T/C: 138%
[17]
  viability, T/C: 162%
[18]
  viability, T/C: 151%
[19]
  viability, T/C: 111%
[20]
  viability, T/C: 109%
[21]
  viability, T/C: 116%
[22]
  viability, T/C: 143%
[23]
  viability, T/C: 131%
[24]
  viability, T/C: 187%
[25]
  viability, T/C: 114%
[26]
  viability, T/C: 105%
[27]
  viability, T/C: 140%
[28]
  viability, T/C: 163%
[29]
  viability, T/C: 179%
[30]
  viability, T/C: 174%
[31]
  viability, T/C: 116%
[32]
  viability, T/C: 146%
[33]
  viability, T/C: 150%
[34]
  viability, T/C: 208%
[35]
  viability, T/C: 206%
[36]
  viability, T/C: 207%
[37]
  viability, T/C: 125%
[38]
  viability, T/C: 127%
[39]
  viability, T/C: 176%
[40]
  viability, T/C: 189%
[41]
  viability, T/C: 179%
[42]
  viability, T/C: 197%

## CC(=O)OC12COC1CC(O)C1(C)C(=O)C(O)C3=C(C)C(OC(=O)C(O)C(NC(=O)OC(C)(C)C)c4ccccc4)CC(O)(C(OC(=O)c4ccccc4)C21)C3(C)C (stereo not given) + COc1cc2nc(C)nc(NC(C)c3cc(N)cc(C(F)(F)F)c3)c2cc1OC1CCOC1
[1]
  IC50: < 9.49 nM
[2]
  IC50: > 3000 nM
[3]
  IC50: < 9.49 nM
[4]
  IC50: < 9.49 nM
[5]
  IC50: > 3000 nM
[6]
  IC50: 2770 nM
Second compound 0.0316 µM, first compound 0.00949 µM
  viability, T/C: 47.1%
Second compound 0.0316 µM, first compound 0.03 µM
  viability, T/C: 55.3%
Second compound 0.0316 µM, first compound 0.0949 µM
  viability, T/C: 53%
Second compound 0.0316 µM, first compound 0.3 µM
  viability, T/C: 36.7%
Second compound 0.0316 µM, first compound 0.949 µM
  viability, T/C: 51.9%
Second compound 0.0316 µM, first compound 3 µM
  viability, T/C: 60.4%
Second compound 0.1 µM, first compound 0.00949 µM
  viability, T/C: 50.7%
Second compound 0.1 µM, first compound 0.03 µM
  viability, T/C: 57%
Second compound 0.1 µM, first compound 0.0949 µM
  viability, T/C: 54%
Second compound 0.1 µM, first compound 0.3 µM
  viability, T/C: 44%
Second compound 0.1 µM, first compound 0.949 µM
  viability, T/C: 54.7%
Second compound 0.1 µM, first compound 3 µM
  viability, T/C: 61.5%
Second compound 0.316 µM, first compound 0.00949 µM
  viability, T/C: 45.5%
Second compound 0.316 µM, first compound 0.03 µM
  viability, T/C: 44.4%
Second compound 0.316 µM, first compound 0.0949 µM
  viability, T/C: 44.8%
Second compound 0.316 µM, first compound 0.3 µM
  viability, T/C: 49.3%
Second compound 0.316 µM, first compound 0.949 µM
  viability, T/C: 47.5%
Second compound 0.316 µM, first compound 3 µM
  viability, T/C: 57.1%
Second compound 1 µM, first compound 0.00949 µM
  viability, T/C: 45.5%
Second compound 1 µM, first compound 0.03 µM
  viability, T/C: 47.8%
Second compound 1 µM, first compound 0.0949 µM
  viability, T/C: 37.2%
Second compound 1 µM, first compound 0.3 µM
  viability, T/C: 57.1%
Second compound 1 µM, first compound 0.949 µM
  viability, T/C: 63.6%
Second compound 1 µM, first compound 3 µM
  viability, T/C: 47.9%
Second compound 3.16 µM, first compound 0.00949 µM
  viability, T/C: 51.5%
Second compound 3.16 µM, first compound 0.03 µM
  viability, T/C: 48.3%
Second compound 3.16 µM, first compound 0.0949 µM
  viability, T/C: 58.6%
Second compound 3.16 µM, first compound 0.3 µM
  viability, T/C: 48.1%
Second compound 3.16 µM, first compound 0.949 µM
  viability, T/C: 58.3%
Second compound 3.16 µM, first compound 3 µM
  viability, T/C: 50.6%
Second compound 10 µM, first compound 0.00949 µM
  viability, T/C: 52.4%
Second compound 10 µM, first compound 0.03 µM
  viability, T/C: 71.7%
Second compound 10 µM, first compound 0.0949 µM
  viability, T/C: 59.2%
Second compound 10 µM, first compound 0.3 µM
  viability, T/C: 58.1%
Second compound 10 µM, first compound 0.949 µM
  viability, T/C: 59.8%
Second compound 10 µM, first compound 3 µM
  viability, T/C: 49.3%

## COc1cc(Nc2ncc3c(n2)-c2ccc(Cl)cc2C(c2c(F)cccc2OC)=NC3)ccc1C(=O)O
Compound 0.1 µM
  viability, T/C: 90.3% [middle of 5 runs]
Compound 0.316 µM
  viability, T/C: 96% [middle of 5 runs]
Compound 1 µM
  viability, T/C: 94% [middle of 5 runs]
Compound 3.16 µM
  viability, T/C: 104% [middle of 5 runs]
Compound 10 µM
  viability, T/C: 61.2% [middle of 5 runs]
Curve of compound
  IC50: > 10000 nM

## CC1COCCN1c1cc(-c2ccnn2C)c2ccnc(-c3ccn[nH]3)c2n1 (stereo not given)
Compound 0.03 µM
  viability, T/C: 80.5% [middle of 5 runs]
Compound 0.0949 µM
  viability, T/C: 87.6% [middle of 5 runs]
Compound 0.3 µM
  viability, T/C: 73.6% [middle of 5 runs]
Compound 0.949 µM
  viability, T/C: 56.7% [middle of 5 runs]
Compound 3 µM
  viability, T/C: 47.6% [middle of 5 runs]
Curve of compound
  IC50: > 3000 nM and 1950 nM and 2380 nM

## Cn1nccc1Nc1nccc(-c2cc3c(s2)C(C)(C)N(CCN2CCOCC2)C3=O)n1 + COc1cc2nc(C)nc(NC(C)c3cc(N)cc(C(F)(F)F)c3)c2cc1OC1CCOC1
[1]
  IC50: 2410 nM
[2]
  IC50: 2320 nM
[3]
  IC50: 2560 nM
[4]
  IC50: 2570 nM
[5]
  IC50: 2590 nM
[6]
  IC50: 2220 nM
[7]
  viability, T/C: 104%
[8]
  viability, T/C: 124%
[9]
  viability, T/C: 124%
[10]
  viability, T/C: 108%
[11]
  viability, T/C: 32.1%
[12]
  viability, T/C: 4.35%
[13]
  viability, T/C: 90.2%
[14]
  viability, T/C: 115%
[15]
  viability, T/C: 110%
[16]
  viability, T/C: 92.1%
[17]
  viability, T/C: 34.4%
[18]
  viability, T/C: 4.06%
[19]
  viability, T/C: 108%
[20]
  viability, T/C: 119%
[21]
  viability, T/C: 107%
[22]
  viability, T/C: 95%
[23]
  viability, T/C: 39.9%
[24]
  viability, T/C: 3.01%
[25]
  viability, T/C: 85.6%
[26]
  viability, T/C: 113%
[27]
  viability, T/C: 113%
[28]
  viability, T/C: 106%
[29]
  viability, T/C: 37.8%
[30]
  viability, T/C: 7.24%
[31]
  viability, T/C: 92.5%
[32]
  viability, T/C: 111%
[33]
  viability, T/C: 121%
[34]
  viability, T/C: 104%
[35]
  viability, T/C: 38.5%
[36]
  viability, T/C: 3.79%
[37]
  viability, T/C: 72.5%
[38]
  viability, T/C: 92.9%
[39]
  viability, T/C: 93.5%
[40]
  viability, T/C: 88.5%
[41]
  viability, T/C: 33.6%
[42]
  viability, T/C: 0.79%
